Data set [1] concerns maximal electroshock-induced seizures (MES). Put plainly: Maximum electroshock seizure test (MES), oral administration to mice. In kind it is in vivo. To be noted: Mus musculus, po, 30 minutes before the test, dose protecting 50% of animals. An excerpt:
The compounds of the present invention may be tested for in vivo anticonvulsant activity after i.v., p.o. or i.p. injection using a number of anticonvulsant tests in mice, including the maximum electroshock seizure test (MES). Maximum electroshock seizures were induced in male NSA mice weighing between 15-20 g and male Sprague-Dawley rats weighing between 200-225 g by application of current (50 mA, 60 pulses/sec, 0.8 msec pulse width, 1 sec duration, D.C., mice; 99 mA, 125 pulses/sec, 0.8 msec pulse width, 2 sec duration, D.C., rats) using a Ugo Basile ECT device (Model 7801). Mice were restrained by gripping the loose skin on their dorsal surface and saline-coated corneal electrodes were held lightly against the two corneae. Rats were allowed free movement on the bench top and ear-clip electrodes were used. […] A tonic seizure was defined as a hindlimb extension in excess of 90 degrees from the plane of the body. Results were treated in a quantal manner.
The ability of 3-[4-(2,4-difluorophenoxy)phenyl]-1H-pyrazole-1-carboxamide to block maximal electroshock-induced seizures (MES) was determined as described earlier.
3-[4-(2,4-Difluorophenoxy)phenyl]-1H-pyrazole-1-carboxamide was administered p.o. to mice 30 minutes before the test procedure.
The following compounds in Table 1 were tested in MES as described for 3-[4-(2,4-difluorophenoxy)phenyl]-1H-pyrazole-1-carboxamide: […]

Data set [2] concerns the target T1, hSkM1 isoform of Na+ channels (Homo sapiens, UniProt P35499).
T1 construct: expressed in transfected cells
Put plainly: Electrophysiological Assay 1: whole-cell patch-clamp of Na+ currents in HEK-293 cells expressing hSkM1. In kind it is cell-based. To be noted: HEK-293 cells stably expressing hSkM1; concentration that produces half maximal inhibition. As for the experimental part:
Cell preparation: HEK-293 cells stably expressing the hSkM1 isoform of Na^+ channels (generous gift from Dr. A. L. George, Vanderbilt University Medical School) were cultured using standard techniques, as described previously (Verdoorn, T. A, et al., Neuron 4:919-928 (1990)). For electrophysiology, cells were plated onto 35 mm Petri dishes (pre-coated with poly-D-lysine) at a density of 1:40 on the day of re-seeding from confluent cultures. Our experience has been that cells are suitable for recordings for 2-3 days after plating.
Patch-clamp recordings of voltage-sensitive Na^+ currents: Whole-cell voltage-clamp recordings were made using conventional patch-clamp techniques (Hamill et al., Pfluegers Arch. 391:85-100 (1981)) with an Axopatch 200A amplifier (Axon Instruments, Foster City, Calif.). […] The recording chamber was continuously superfused with the external solution (150 mM NaCl, 5.4 mM KCl, 1.8 mM CaCl2, 1 mM MgCl2, 10 mM HEPES, 10 mM glucose, pH 7.4 (NaOH)) at a speed of about 1 mL/min. Recording pipettes were pulled from thick-walled capillaries (WPI, Sarasota, Fla.) and fire-polished. The pipette resistances ranged from 1 to 3 MΩ when the pipettes were filled with internal solution containing (in mM): 110 CsF, 10 NaCl, 5 MgCl2, 11 EGTA, 10 HEPES, pH adjusted to 7.4 with CsOH. Osmolality was set with a difference of 15-20 mmol/kg between external and internal solutions (lower inside the cell). Drugs and intervening wash-outs were applied through a linear array of flow pipes (Drummond Microcaps, 2 μL, 64-mm length). Compounds are dissolved in dimethylsulfoxide (DMSO) to make a 30 mM stock solution, which was subsequently diluted into the external solution to give final concentrations of 0.1-100 μM. At the highest (1%) concentration, DMSO inhibited the size of Na^+ current only slightly. Currents were recorded at room temperature (22-25° C.), filtered at 5 kHz with an active 8-pole Bessel filter (Frequency Devices, Haverhill, Mass.), digitized at 10-50 μs intervals, and stored using Digidata 1200 analog/digital interface with Pclamp6/Clampex software (Axon Instruments). Series resistance was cancelled typically by ˜75% when necessary. The inhibitory potency of drugs was assessed by measuring reductions in the peak amplitude of Na^+ currents induced by increasing concentrations of compounds tested. Na^+ currents were elicited by stepping membrane voltage from holding potentials over the range −100 mV to −50 mV, to a pulse potential of −10 mV. The test pulse duration was 5-10 msec, repeated at a frequency≦1 Hz. Concentration-inhibition curves were fitted with equation 1:
I/Icontrol=1/(1+([compound]/IC50)) Eq. 1
where Icontrol is the maximal Na^+ current in the absence of antagonist, [compound] is the drug concentration, and IC50 is the concentration of compound that produces half maximal inhibition.
The apparent antagonist dissociation constant (Kd) of this compound for inactivated sodium channels is ˜8 nM.
The Ki (the concentration of a compound that produces half maximal inhibition) value for 3-[4-(4-fluorophenoxy)phenyl]-1H-pyrazole-1-carboxamide and other tested compounds are presented in Table 2.

Data set [3] deals with rBIIA isoform of Na+ channels (Rattus norvegicus, UniProt P04775). Description: Electrophysiological Assay 2: whole-cell patch-clamp of Na+ currents in HEK-293 cells expressing rBIIA. Conditions: for Ki: HEK-293 cells stably expressing rBIIA, concentration that produces half maximal inhibition. It counts as cell-based. How it is done:
Cell preparation: HEK-293 (NaIIA-B2) cell line stably expressing the rBIIA isoform of Na^+ channels was established in-house. The cells were cultured using standard techniques, as described previously (Verdoorn, T. A, et al., Neuron 4:919-928 (1990)). For electrophysiology, cells were plated onto poly-D-lysine pre-coated Cellware 35 mm Petri dishes (BIOCOAT, Becton Dickinson) at a density of ˜10^4 cells/dish on the day of re-seeding from confluent cultures. Our experience has been that cells are suitable for recordings for 2-3 days after plating.
Patch-clamp recordings of voltage-sensitive Na^+ currents. Whole-cell voltage-clamp recordings were made using conventional patch-clamp techniques (Hamill et al., Pfluegers Arch. 391:85-100 (1981)) with an Axopatch 200A amplifier (Axon Instruments, Foster City, Calif.). The recording chamber was continuously superfused with the external solution (150 mM NaCl, 5.4 mM KCl, 1.8 mM CaCl2, 1 mM MgCl2, 10 mM HEPES, 10 mM glucose, pH7.4 adjusted with NaOH, osmolality ˜320 mmol/kg) at a speed of about 1 mL/min. Recording pipettes were pulled from the thick-walled capillaries (WPI, Sarasota, Fla.) and fire-polished. The pipette resistances ranged from 1 to 3 MΩ when the pipettes were filled with internal solution containing (in mM): 130 CsF, 20 NaCl, 2 MgCl2, 10 EGTA, 10 HEPES, pH adjusted to 7.4 with CsOH, osmolality ˜310 mmol/kg. Drugs and intervening wash-outs were applied through a linear array of flow pipes (Drummond Microcaps, 2 μL, 64-mm length). Compounds are dissolved in dimethylsulfoxide (DMSO) to make a 30 mM stock solution, which was subsequently diluted into the external solution to give final concentrations of 0.1-100 μM. At the highest (1%) concentration, DMSO inhibited the size of Na^+ current only slightly. Currents were recorded at room temperature (22-25° C.), filtered at 3 kHz with an active 8-pole Bessel filter (Frequency Devices, Haverhill, Mass.), digitized at 10-50 μs intervals, and stored using Digidata 1200 analog/digital interface with Pclamp6/Clampex software (Axon Instruments). Series resistance was cancelled typically by ˜75% when necessary.
The following voltage pulse protocols were used to assess the potency and kinetics of inhibition of the Na^+ channels by the compounds (FIG. 1). [drawing 33]
FIG. 1. Voltage pulse protocols. A. IV-curves. C. Steady-state inactivation. B. Repriming kinetics. D. Time course of binding.
Current-voltage relationship (IV-curve), protocol A, was used to report the voltage at which the maximal inward Na^+ current is achieved. This voltage was used throughout the experiment as testing voltage, Vt. The steady-state inactivation (or, availability) curve, protocol C, was used to get the voltage at which almost complete (≧95%) inactivation of Na^+ channels occurs; it served as voltage for conditioning prepulse, Vc, throughout the experiment. Protocol B reports how fast the channels recover from inactivation at hyperpolarized voltages. This permitted us to set up the duration of the hyperpolarization gap which is used in measurement of the kinetics of binding of compounds to inactivated Na^+ channels (protocol D). Channel repriming under control conditions was fast (≧90% recovery during first 5-10 ms). If a drug substantially retards the repriming process then it becomes possible (protocol D) to accurately measure the kinetics of binding of the inhibitor to inactivated channels as well as the steady-state affinity (k+ and Ki). To estimate k+ values the reduction in peak currents in successive trials with varying pre-pulse duration was plotted as a function of pre-pulse duration and the time constant (τ) measured by mono-exponential fit. A plot of 1/τ as a function of antagonist concentration then allowed calculating of the macroscopic binding rates of the antagonists. To determine Ki values the partial inhibition curves measured by fractional responses in steady-state were fitted with the logistic equation: […]

Where a name gives a salt, the structure may show the parent alone.

T1 sequence (P35499 whole entry, canonical isoform): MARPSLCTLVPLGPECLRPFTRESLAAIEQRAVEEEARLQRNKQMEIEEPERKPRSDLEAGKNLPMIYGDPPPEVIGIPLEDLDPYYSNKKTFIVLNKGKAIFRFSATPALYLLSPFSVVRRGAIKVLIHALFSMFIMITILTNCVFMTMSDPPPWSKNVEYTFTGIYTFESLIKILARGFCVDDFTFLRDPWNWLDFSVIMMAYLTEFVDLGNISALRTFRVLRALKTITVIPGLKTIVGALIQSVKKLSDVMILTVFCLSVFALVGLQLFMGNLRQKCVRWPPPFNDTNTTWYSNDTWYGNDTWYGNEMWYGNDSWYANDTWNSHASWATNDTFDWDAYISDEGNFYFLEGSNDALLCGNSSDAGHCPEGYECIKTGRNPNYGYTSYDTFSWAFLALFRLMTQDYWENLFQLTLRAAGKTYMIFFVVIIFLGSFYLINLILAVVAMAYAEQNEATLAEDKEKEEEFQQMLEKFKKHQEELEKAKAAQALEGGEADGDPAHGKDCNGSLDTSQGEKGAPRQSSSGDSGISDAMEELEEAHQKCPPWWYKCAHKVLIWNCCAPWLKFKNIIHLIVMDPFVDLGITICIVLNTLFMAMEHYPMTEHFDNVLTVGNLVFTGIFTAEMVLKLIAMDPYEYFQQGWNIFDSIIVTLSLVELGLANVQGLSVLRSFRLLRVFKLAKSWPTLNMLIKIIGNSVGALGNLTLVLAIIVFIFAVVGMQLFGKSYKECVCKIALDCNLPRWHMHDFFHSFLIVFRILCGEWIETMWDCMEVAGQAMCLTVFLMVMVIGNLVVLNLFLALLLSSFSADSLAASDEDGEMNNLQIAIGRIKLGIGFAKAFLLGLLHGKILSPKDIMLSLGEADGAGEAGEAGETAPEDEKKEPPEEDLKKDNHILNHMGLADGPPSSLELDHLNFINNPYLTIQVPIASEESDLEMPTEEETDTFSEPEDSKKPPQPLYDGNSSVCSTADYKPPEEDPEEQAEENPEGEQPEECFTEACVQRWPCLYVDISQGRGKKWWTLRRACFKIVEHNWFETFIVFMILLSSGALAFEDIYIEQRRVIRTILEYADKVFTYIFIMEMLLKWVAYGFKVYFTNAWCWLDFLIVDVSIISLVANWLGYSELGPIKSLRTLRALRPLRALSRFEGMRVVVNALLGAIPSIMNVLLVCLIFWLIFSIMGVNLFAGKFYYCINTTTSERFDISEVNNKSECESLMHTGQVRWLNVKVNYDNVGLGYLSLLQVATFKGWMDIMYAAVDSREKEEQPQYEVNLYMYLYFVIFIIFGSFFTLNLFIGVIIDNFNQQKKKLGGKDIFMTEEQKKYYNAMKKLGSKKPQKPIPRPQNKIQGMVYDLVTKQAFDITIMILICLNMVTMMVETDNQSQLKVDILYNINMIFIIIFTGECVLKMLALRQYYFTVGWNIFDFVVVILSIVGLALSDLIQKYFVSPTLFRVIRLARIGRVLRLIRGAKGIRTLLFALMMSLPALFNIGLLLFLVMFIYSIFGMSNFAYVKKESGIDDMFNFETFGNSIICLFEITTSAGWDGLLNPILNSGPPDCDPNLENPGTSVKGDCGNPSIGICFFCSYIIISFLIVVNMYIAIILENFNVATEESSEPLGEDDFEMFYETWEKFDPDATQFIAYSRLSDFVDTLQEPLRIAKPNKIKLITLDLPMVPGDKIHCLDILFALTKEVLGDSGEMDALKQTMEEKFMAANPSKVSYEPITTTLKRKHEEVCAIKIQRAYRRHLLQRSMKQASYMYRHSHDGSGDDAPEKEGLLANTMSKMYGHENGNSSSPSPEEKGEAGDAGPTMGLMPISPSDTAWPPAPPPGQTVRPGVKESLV

For `O=C(Cn1nccc1-c1ccc(Oc2ccc(F)cc2)cc1)N1CCOCC1` [1-Morpholin-4-yl-2-{5-[4-(4-fluorophenoxy)phenyl]-pyrazol-1-yl}-ethanone], the melting point was 122 to 124 °C. The same molecule registered an ED50 in data set [1] of 4.4 mg/kg.

In the case of `NC(=O)n1ccc(-c2ccc(Oc3ccc(Cl)cc3F)cc2)n1` [3-[4-(4-Chloro-2-fluorophenoxy)phenyl]-1H-pyrazole-1-carhoxamide], the melting point fell in the range of 150 to 151 °C. Further, the 50% effect level in data set [1] (ED50) was put at a dose of 3.1 mg/kg. Also, the Ki in data set [2] amounted to 3 nM.

The molecule `Cl.FC(F)(F)c1ccc(Oc2ccc(-c3c[nH]cn3)cc2)cc1` [4-(4-(4-Trifluoromethylphenoxy)phenyl]-1H-imidazole, hydrochloride salt] yielded a melting point of 230 to 232 °C. This molecule also displayed an ED50 in data set [1] of 7.7 mg/kg.

In the case of `Cl.Fc1ccc(Oc2ccc(-c3c[nH]cn3)cc2F)cc1` [4-[4-(4-Fluorophenoxy)-3-fluorophenyl]-1H-imidazole, hydrochloride salt], the affinity in data set [3] corresponds to a Ki of 250 nM. The “inhibition of voltage-gated sodium currents” value in data set [3] (HEK-293 cells stably expressing the rBIIA isoform of Na+ channels) is recorded as “dose-dependent inhibition”. The Kd in data set [3] (HEK-293 cells stably expressing the rBIIA isoform of Na+ channels, read-out: apparent antagonist dissociation constant (Kd) for inactivated sodium channels) was determined as 250 nM. Also, in data set [3] (rBIIA, blocking effect highly sensitive to the holding voltage), the “potency towards Na+ channels in their resting states” value is “weak potency”.

In data set [1], `Fc1ccc(Oc2ccc(-c3ccn(-c4ncccn4)n3)cc2)cc1` [2-{3-[4-(4-Fluorophenoxy)phenyl]-pyrazol-1-yl}-pyrimidine] displayed an ED50 of 4.7 mg/kg. This molecule also came in with a Ki in data set [3] of 420 nM.

The molecule `Fc1ccc(Oc2ccc(-c3ncc[nH]3)cc2)cc1` [2-[4-(4-Fluorophenoxy)phenyl]-1H-imidazole] gave a Ki in data set [3] of 1100 nM. In other words, the single-digit micromolar range.

For `Fc1ccc(Oc2ccc(-c3c[nH]cn3)cc2)c(F)c1` [4-[4-(2,4-Difluorophenoxy)phenyl]-1H-imidazole], the melting point fell in the range of 144 to 148 °C. Moreover, the Ki in data set [3] came to 1030 nM.

For `Fc1ccc(Oc2ccc(-c3c[nH]cn3)cc2)c(F)c1` (as salt: hydrochloride) [4-[4-(2,4-Difluorophenoxy)phenyl]-1H-imidazole], the melting point was in the range of 192 to 195 °C.

Regarding `CSc1cc(-c2ccc(Oc3ccccc3)cc2)nn1C(N)=O` [5-Methylthio-3-(4-phenoxyphenyl)-1H-pyrazole-1-carboxamide], the melting point fell in the range of 142 to 144 °C. The molecule also came in with a Ki in data set [2] of 80 nM.

With `NC(=O)Cn1nccc1-c1ccc(Oc2ccc(F)cc2)cc1` [2-{5-[4-(4-Fluorophenoxy)phenyl]-pyrazol-1-yl}-acetamide], it took a dose of 2.6 mg/kg to reach the 50% effect level in data set [1] (ED50). The molecule further gave a Ki in data set [3] of 1560 nM.

`Cl.Fc1cc(Cl)ccc1Oc1ccc(-c2c[nH]cn2)cc1` [4-[4-(4-Chloro-2-fluorophenoxy)phenyl]-1H-imidazole, hydrochloride salt] yielded a melting point of 216 to 220 °C. This molecule also came in with an ED50 in data set [1] of 10 mg/kg. For the same molecule, in data set [3], the Ki was determined as 120 nM.

Molecule `NC(=O)n1ccc(-c2ccc(Oc3ccc(C(F)(F)F)cc3)cc2)n1` [3-[4-(4-Trifluoromethylphenoxy)phenyl]-1H-pyrazole-1-carboxamide] displayed a melting point of 131 to 132 °C. For the same molecule, the ED50 in data set [1] came to 3.9 mg/kg.

With `NC(=O)c1coc(-c2ccc(Oc3ccc(F)cc3)cc2)n1` [2-[4-(4-Fluorophenoxy)phenyl]oxazole-4-carboxamide], the Ki in data set [3] came to 1310 nM. That is a single-digit micromolar value.

For the origin of these results see US6737418B2, “Aryl substituted pyrazoles, imidazoles, oxazoles, thiazoles and pyrroles, and the use thereof” (Euro-Celtique S.A., priority 1999, dated 2004).
